According to patent publication US20250289793A1, “MACROCYCLIC INHIBITORS OF ATP CITRATE LYASE” (Esperion Therapeutics, Inc., priority 2022, published 2025):
Like-named read-outs stand apart in the source and are kept apart here.

Legend:
ACLY [1] = molecular target: T1, ACLY (Homo sapiens (Human), UniProt P53396); experiment: InCell Pulse assay (permeate HEK293 cells, bind to and stabilize ACLY); type: cell-based; details: HEK293 cells transfected with pICP-ACLY(FL)-ePL; 1 hour at 37° C., 55° C. heat pulse 10 minutes; read-out: InCell Pulse IC50 GMean
T1 sequence (P53396 whole entry, the tested form may be a part): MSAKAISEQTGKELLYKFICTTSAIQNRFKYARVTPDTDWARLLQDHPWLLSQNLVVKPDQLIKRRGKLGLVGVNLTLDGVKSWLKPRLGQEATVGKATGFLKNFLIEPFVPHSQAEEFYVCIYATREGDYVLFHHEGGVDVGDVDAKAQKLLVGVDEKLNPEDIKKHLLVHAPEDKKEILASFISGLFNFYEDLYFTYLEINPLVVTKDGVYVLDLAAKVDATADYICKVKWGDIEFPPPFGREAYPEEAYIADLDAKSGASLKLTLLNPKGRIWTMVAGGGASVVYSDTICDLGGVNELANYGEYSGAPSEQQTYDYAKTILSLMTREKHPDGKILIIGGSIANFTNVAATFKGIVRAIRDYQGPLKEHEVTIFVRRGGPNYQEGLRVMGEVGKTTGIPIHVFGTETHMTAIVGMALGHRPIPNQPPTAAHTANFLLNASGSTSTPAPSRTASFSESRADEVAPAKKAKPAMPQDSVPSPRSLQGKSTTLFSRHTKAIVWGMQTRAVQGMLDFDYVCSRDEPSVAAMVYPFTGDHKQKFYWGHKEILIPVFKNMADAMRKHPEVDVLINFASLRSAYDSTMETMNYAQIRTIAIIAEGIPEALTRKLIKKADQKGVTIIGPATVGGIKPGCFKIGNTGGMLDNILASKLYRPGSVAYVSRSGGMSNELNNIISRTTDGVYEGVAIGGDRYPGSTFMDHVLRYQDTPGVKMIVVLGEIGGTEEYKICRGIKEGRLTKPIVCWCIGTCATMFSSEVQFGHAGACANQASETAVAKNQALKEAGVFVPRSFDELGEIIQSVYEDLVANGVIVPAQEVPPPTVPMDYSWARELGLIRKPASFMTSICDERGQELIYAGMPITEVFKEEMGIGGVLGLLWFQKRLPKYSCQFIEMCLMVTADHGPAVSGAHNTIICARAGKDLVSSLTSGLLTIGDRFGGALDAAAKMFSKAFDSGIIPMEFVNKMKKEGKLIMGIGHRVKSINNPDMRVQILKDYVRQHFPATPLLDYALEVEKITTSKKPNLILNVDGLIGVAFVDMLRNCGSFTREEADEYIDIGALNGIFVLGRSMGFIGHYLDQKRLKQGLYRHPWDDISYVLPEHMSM
Summary of the method: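 HEK293 cells transiently expressing full-length ACLY-ePL were exposed in OptiMEM to 11-point, 3-fold compound dilutions for 1 h at 37 °C, heat-pulsed 10 min at 55 °C, then lysed for enzyme-fragment complementation luminescence. Four-parameter fit, normalised to 0.5% DMSO and 1 μM NDI-094311.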

[2] = molecular target: Recombinant human ACLY full length protein (Homo sapiens (Human), UniProt P53396); experiment: hACLY ADP-Glo activity assay; type: biochemical; details: 0.5 nM ACLY; 15 μM sodium citrate, 1 μM coenzyme A, 80 μM ATP; ADP formed, luminescence; read-out: ADP-Glo IC50 GMean
Sequence of Recombinant human ACLY full length protein (P53396 whole entry): as the sequence (P53396 whole entry, the tested form may be a part) above
Procedure: Compounds of the disclosure were evaluated for their efficacy in inhibiting hACLY using an ADP-Glo™ assays that measure ADP formed from the enzymatic activity of hACLY.
Test compounds were 3-fold serially diluted in DMSO over 11-point concentration range and dispensed onto a 384-well plate. Recombinant human ACLY full length protein was purified. Concentrations of ACLY protein, sodium citrate, coenzyme A, and ATP in the reaction were optimized for standardized homogenous enzyme assay using ADP-Glo™ Kinase (Promega Inc.). The assay measured ADP formed from the enzymatic reaction.
The reaction buffer consisted of the assay buffer (50 mM HEPES pH 8.0, 10 mM MgCl2, 4 mM 1,4-Dithiothreitol, 0.01% Brij® 35).
ACLY protein (0.5 nM) was added to the prepared reaction buffer, and the mixture was dispensed into the assay plate and incubated for 30 minutes at room temperature. Next, 15 μM sodium citrate, 1 μM coenzyme A, and 80 μM ATP were added into the assay plate and incubated for 60 minutes at room temperature. The final reaction volume for each well was 5 μL.
5 μL of ADP-Glo™ reagent was added, and the mixture was incubated for 40 minutes at room temperature. 10 μl ADP-Glo™ detection reagent was added, and the mixture was incubated for 30 minutes at room temperature. Luminescence was determined using EnVision microplate reader with ultra-luminescence module (Perkin Elmer Inc). Concentration-response curve-fitting and IC50 determination was performed using Xlfit Software (version 5.5.0) with a four-parameter logistic regression fit model.

ACLY [3] = molecular target: T1, ACLY; experiment: Human ACLY (hACLY) RF/MS activity assay; type: biochemical; details: 1 nM hACLY; 30 min pre-incubation; 15 μM Coenzyme A, 50 μM ATP, 50 μM citrate; CoA to Acetyl-CoA by RF/MS; read-out: RFMS IC50 GMean
Summary of the method: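 Reaction buffer was 50 mM Hepes pH 8.0, 10 mM MgCl2, 0.003% BSA, 0.01% Brij35, 50 mM NaCl, 4 mM DTT, with 1 nM hACLY and 1% DMSO; compounds (two-fold series from 10 μM) were pre-incubated 30 min at RT. Reaction with 15 μM CoA, 50 μM ATP, 50 μM citrate ran 30 min, formic-acid quenched; CoA and acetyl-CoA quantified by RF/MS as ratio.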

IC50 (ACLY [1]) [nM]	IC50 (ACLY [3]) [nM]	SMILES	also measured
–	–	COc1c(Cl)cc2cc1S(=O)(=O)Nc1cc(ccc1F)N1CCC[C@@H]1CCOC2=O	ring closure, isolated yield (from 3-chloro-5-[[2-fluoro-5-[(2R)-2-(2-hydroxyethyl)221pyrrolidine-1-yl]phenyl]sulfamoyl]-4-methoxybenzoic acid, ester bond, 14-membered ring, DCC/DMAP, DCM, 26.0 mM): 77%
–	–	COc1ccc2cc1C(=O)N1CCc3cc(F)c(cc31)-c1ccccc1OCCNC2=O	ring closure, isolated yield (from 3-[6-[2-(2-aminoethoxy)phenyl]-5-fluoro-indoline-1-carbonyl]-4-methoxybenzoic acid·HCl, amide bond, 15-membered ring, T3P/DIPEA, DMF, 11.6 mM): 24%
–	–	COc1c(Cl)cc2cc1S(=O)(=O)Nc1cc(ccc1F)-c1ccccc1CCCOC2	ring closure, isolated yield (from COc1c(Cl)cc(CBr)cc1S(=O)(=O)Nc1cc(-c2ccccc2CCCO)ccc1F, ether bond, 15-membered ring, NaH, THF, 13.0 mM, 50.0 °C, 2.0 h): 46%
–	–	O=C1OCCOc2ccccc2-c2cc(c(F)cc2F)NS(=O)(=O)c2cc1cc(Cl)c2C(F)F	ring closure, isolated yield (from O=C(O)c1cc(Cl)c(C(F)F)c(S(=O)(=O)Nc2cc(-c3ccccc3OCCO)c(F)cc2F)c1, ester bond, 15-membered ring, DCC/DMAP, DCM, 33.0 mM, 25.0 °C, 1.5 h): 53%
–	–	COc1c(Cl)cc2cc1S(=O)(=O)Nc1cc(c(F)cc1F)-c1ccccc1COC(=O)C2	ring closure, isolated yield (from COc1c(Cl)cc(CC(=O)O)cc1S(=O)(=O)Nc1cc(-c2ccccc2CO)c(F)cc1F, ester bond, 14-membered ring, DCC/DMAP, DCM, 12.7 mM, 3.0 h): 19%
–	–	COc1c(Cl)cc2cc1S(=O)(=O)Nc1cc(c(F)cc1F)-c1cccc3c1OC(COC2=O)C3 (centres unmarked)	ring closure, isolated yield (from COc1c(Cl)cc(C(=O)O)cc1S(=O)(=O)Nc1cc(-c2cccc3c2OC(CO)C3)c(F)cc1F, ester bond, 15-membered ring, DCC/DMAP, DCM, 29.5 mM, 25.0 °C, 2.0 h): 70%
–	–	COc1c(Cl)cc2cc1S(=O)(=O)Nc1cc(ccc1F)-c1ccccc1CCOC2	ring closure, isolated yield (from COc1c(Cl)cc(CBr)cc1S(=O)(=O)Nc1cc(-c2ccccc2CCO)ccc1F, ether bond, 14-membered ring, NaH, THF, 12.7 mM, 50.0 °C, 2.5 h): 78%
–	–	COc1c(Cl)cc2cc1S(=O)(=O)Nc1cc(c(F)cc1F)-c1ccccc1COC2=O	ring closure, isolated yield (from COc1c(Cl)cc(C(=O)O)cc1S(=O)(=O)Nc1cc(-c2ccccc2CO)c(F)cc1F, ester bond, 13-membered ring, DCC/DMAP, DCM, 21.8 mM, 26.5 h): 43%
≥ 50000	100 to 10000	O=C1NCCCOc2cccc(c2)-c2cc(c(F)cc2F)NS(=O)(=O)c2cc1cc(Cl)c2O [Compound 5, 11-chloro-3,5-difluoro-10-hydroxy-19-oxa-8lambda6-thia-7,15-diazatetracyclo[18.3.1.1^2,6.1^9,13]hexacosa-1(23),2(26),3,5,9(25),10,12,20(24),21-nonaene-8,8,14-trione]	IC50 [2]: 10 to 1000 nM
–	–	COc1c(Cl)cc2cc1S(=O)(=O)Nc1cc(c(F)cc1F)-c1ccccc1C(C)CCOC2=O (centres unmarked)	ring closure, isolated yield (from COc1c(Cl)cc(C(=O)O)cc1S(=O)(=O)Nc1cc(-c2ccccc2C(C)CCO)c(F)cc1F, ester bond, 15-membered ring, DCC/DMAP, DCM, 19.8 mM, 25.0 °C, 2.0 h): 72%
–	–	COc1c(Cl)cc2cc1S(=O)(=O)Nc1cc(c(F)cc1F)Oc1cccc(c1)COC2=O	ring closure, isolated yield (from COc1c(Cl)cc(C(=O)O)cc1S(=O)(=O)Nc1cc(Oc2cccc(CO)c2)c(F)cc1F, ester bond, 15-membered ring, DCC/DMAP, DCM, 19.8 mM, 3.0 h): 72%
300 to 1000	< 20	O=C1OCCCOc2ccccc2-c2cc(c(F)cc2F)NS(=O)(=O)c2cc1cc(Cl)c2O [Compound 20, 16-chloro-22,24-difluoro-17-hydroxy-8,12-dioxa-19lambda6-thia-20-azatetracyclo[19.3.1.1^14,18.0^2,7]hexacosa-1(25),2,4,6,14,16,18(26),21,23-nonaene-13,19,19-trione]	IC50 [2]: < 1 nM
–	–	COc1c(Cl)cc2cc1S(=O)(=O)Nc1cc(ccc1C(F)(F)F)-c1ccccc1OCCOC2=O	ring closure, isolated yield (from COc1c(Cl)cc(C(=O)O)cc1S(=O)(=O)Nc1cc(-c2ccccc2OCCO)ccc1C(F)(F)F, ester bond, 15-membered ring, DCC/DMAP, DCM, 16.8 mM, 25.0 °C, 1.0 h): 42%
< 300	< 20	O=C1OCCOc2ccc(F)cc2-c2cc(F)c(F)c(c2)NS(=O)(=O)c2cc1cc(Cl)c2O [Compound 79, 15-chloro-4,21,22-trifluoro-16-hydroxy-18,18-dioxo-8,11-dioxa-18λ6-thia-19-azatetracyclo[18.3.1.113,17.02,7]pentacosa-1(23),2(7),3,5,13,15,17(25),20(24),21-nonaen-12-one]	–
< 300	20 to 100	O=C1OCCOc2ccccc2-c2ccc(C(F)(F)F)c(c2)NS(=O)(=O)c2cc1cc(Cl)c2O [Compound 58, 15-chloro-16-hydroxy-18,18-dioxo-21-(trifluoromethyl)-8,11-dioxa-18λ6-thia-19-azatetracyclo[18.3.1.113,17.02,7]pentacosa-1(24),2(7),3,5,13(25),14,16,20,22-nonaen-12-one]	–
≥ 50000	100 to 10000	O=C1NCCOc2cccc(c2)-c2cc(c(F)cc2F)NS(=O)(=O)c2cc1cc(Cl)c2O [Compound 3, 11-chloro-3,5-difluoro-10-hydroxy-18-oxa-8lambda6-thia-7,15-diazatetracyclo[17.3.1.1^2,6.1^9,13]pentacosa-1(22),2(25),3,5,9(24),10,12,19(23),20-nonaene-8,8,14-trione]	IC50 [2]: 10 to 1000 nM
≥ 50000	20 to 100	O=C1OCCOc2ccccc2-c2cc(c(F)cc2F)NS(=O)(=O)c2cc1c[nH]c2=O [Compound 36, 21,23-difluoro-18,18-dioxo-8,11-dioxa-18λ6-thia-15,19-diazatetracyclo[18.3.1.113,17.02,7]pentacosa-1(23),2(7),3,5,13,17(25),20(24),21-octaene-12,16-dione]	–
300 to 1000	20 to 100	O=C1OCCCOc2cc(F)ccc2-c2cc(c(F)cc2F)NS(=O)(=O)c2cc1cc(Cl)c2O [Compound 29, 16-chloro-5,22,24-trifluoro-17-hydroxy-8,12-dioxa-19lambda6-thia-20-azatetracyclo[19.3.1^1,4,18.0^2,7]hexacosa-1(25),2,4,6,14,16,18(26),21,23-nonaene-13,19,19-trione]	–
≥ 50000	≥ 10000	O=C1OCCOc2ccccc2-c2cc(c(F)cc2F)NS(=O)(=O)c2cc1cc(Cl)n2 [Compound 61, 15-chloro-21,23-difluoro-18,18-dioxo-8,11-dioxa-18λ6-thia-16,19-diazatetracyclo[18.3.1.113,17.02,7]pentacosa-1(24),2,4,6,13,15,17(25),20,22-nonaen-12-one]	–
≥ 50000	100 to 10000	C[C@@H]1COc2ccccc2-c2cc(c(F)cc2F)NS(=O)(=O)c2cc(cc(Cl)c2O)C(=O)N1 [Compound 19, (10R)-15-chloro-21,23-difluoro-16-hydroxy-10-methyl-8-oxa-18lambda6-thia-11,19-diazatetracyclo[18.3.1.1^13,17.0^2,7]pentacosa-1(24),2,4,6,13,15,17(25),20,22-nonaene-12,18,18-trione]	IC50 [2]: 10 to 1000 nM
< 300	< 20	O=C1OCCOc2ccc(F)cc2-c2ccc(F)c(c2)NS(=O)(=O)c2cc1cc(Cl)c2O [Compound 46, 15-chloro-4,21-difluoro-16-hydroxy-18,18-dioxo-8,11-dioxa-18λ6-thia-19-azatetracyclo[18.3.1.113,17.02,7]pentacosa-1(23),2(7),3,5,13,15,17(25),20(24),21-nonaen-12-one]	–
–	–	COc1c(Cl)cc2cc1S(=O)(=O)Nc1cc(c(F)cc1F)-c1ccccc1N1CC(COC2=O)C1	ring closure, isolated yield (from 3-chloro-5-[[2,4-difluoro-5-[2-[3-(hydroxymethyl)229azetidine-1-yl]phenyl]phenyl]sulfamoyl]-4-methoxybenzoic acid, ester bond, 16-membered ring, DCC/DMAP, DCM, 25.0 mM): 60%
< 300	< 20	O=C1OCCc2ccccc2-c2cc(F)c(F)c(c2)NS(=O)(=O)c2cc1cc(Cl)c2O [Compound 80, 14-chloro-20,21-difluoro-15-hydroxy-17,17-dioxo-10-oxa-17λ6-thia-18-azatetracyclo[17.3.1.112,16.02,7]tetracosa-1(23),2,4,6,12,14,16(24),19,21-nonaen-11-one]	–
